Test results published in ChEMBL document CHEMBL3872259, “Synthesis, characterization, and in vitro SAR evaluation of N,N'-bis(arylmethyl)-C2-alkyl substituted imidazolium salts” (Bioorg Med Chem Lett, 2017).

Columns and labels:
[1] = Antiproliferative activity against human NCI-H460 cells assessed as cell growth at 10 uM measured after 48 hrs by sulforhodamine B assay relative to control; type: functional; conditions: NCI-H460, 48 h, read-out: Activity
[2] = Antiproliferative activity against human A549 cells assessed as reduction in cell viability measured after 72 hrs by MTT assay; type: functional, cell-based; conditions: A549, 72 h
[3] = Aqueous solubility of the compound; type: physicochemical; conditions: buffer
[4] = Antiproliferative activity against human HOP62 cells assessed as cell growth at 10 uM measured after 48 hrs by sulforhodamine B assay relative to control; type: functional; conditions: HOP-62, 48 h, read-out: Activity
[5] = Antiproliferative activity against human NCI-H23 cells assessed as cell growth at 10 uM measured after 48 hrs by sulforhodamine B assay relative to control; type: functional; conditions: NCI-H23, 48 h, read-out: Activity
[6] = Antiproliferative activity against human NCI-H322M cells assessed as cell growth at 10 uM measured after 48 hrs by sulforhodamine B assay relative to control; type: functional; conditions: read-out: Activity
[7] = Growth inhibition of human NCI-H23 cells measured after 48 hrs by sulforhodamine B assay; type: functional; conditions: NCI-H23, 48 h; for CC50: read-out: LC50 (the source's name)
[8] = Antiproliferative activity against human NCI-H522 cells assessed as cell growth at 10 uM measured after 48 hrs by sulforhodamine B assay relative to control; type: functional; conditions: NCI-H522, 48 h, read-out: Activity
[9] = Antiproliferative activity against human NCI-H460 cells assessed as reduction in cell viability measured after 72 hrs by MTT assay; type: functional, cell-based; conditions: NCI-H460, 72 h; for CC50: read-out: LC50 (the source's name)
[10] = Growth inhibition of human HOP92 cells measured after 48 hrs by sulforhodamine B assay; type: functional; conditions: HOP-92, 48 h; for CC50: read-out: LC50 (the source's name)
[11] = Growth inhibition of human NCI-H522 cells measured after 48 hrs by sulforhodamine B assay; type: functional; conditions: NCI-H522, 48 h
[12] = Growth inhibition of human NCI-H322M cells measured after 48 hrs by sulforhodamine B assay; type: functional; conditions: for CC50: read-out: LC50 (the source's name)
[13] = Antiproliferative activity against human EKVX cells assessed as cell growth at 10 uM measured after 48 hrs by sulforhodamine B assay relative to control; type: functional; conditions: read-out: Activity
[14] = Growth inhibition of human HOP62 cells measured after 48 hrs by sulforhodamine B assay; type: functional; conditions: HOP-62, 48 h; for CC50: read-out: LC50 (the source's name)
[15] = Antiproliferative activity against human HOP92 cells assessed as cell growth at 10 uM measured after 48 hrs by sulforhodamine B assay relative to control; type: functional; conditions: HOP-92, 48 h, read-out: Activity
[16] = Antiproliferative activity against human A549/ATCC cells assessed as cell growth at 10 uM measured after 48 hrs by sulforhodamine B assay relative to control; type: functional; conditions: A549, 48 h, read-out: Activity
[17] = Growth inhibition of human NCI-H226 cells measured after 48 hrs by sulforhodamine B assay; type: functional; conditions: NCI-H226, 48 h; for CC50: read-out: LC50 (the source's name)
[18] = Growth inhibition of human EKVX cells measured after 48 hrs by sulforhodamine B assay; type: functional; conditions: for CC50: read-out: LC50 (the source's name)
[19] = Antiproliferative activity against human HCC827 cells assessed as reduction in cell viability measured after 72 hrs by MTT assay; type: functional, cell-based; conditions: HCC827, 72 h
[20] = Antiproliferative activity against human NCI-H1975 cells assessed as reduction in cell viability measured after 72 hrs by MTT assay; type: functional, cell-based; conditions: NCI-H1975, 72 h
[21] = Antiproliferative activity against human NCI-H226 cells assessed as cell growth at 10 uM measured after 48 hrs by sulforhodamine B assay relative to control; type: functional; conditions: NCI-H226, 48 h, read-out: Activity

CCCCc1n(Cc2ccc3ccccc3n2)cc[n+]1Cc1ccc2ccccc2n1.[Cl-]
growth at 10 µM [1]: 16.5% | GI50 [2]: 4.76 µM | IC50 [2]: 7 µM | LC50 [2]: 47.6 µM | TGI [2]: 18.5 µM | solubility [3]: > 80 mM | growth at 10 µM [4]: 25.2% | growth at 10 µM [5]: 4.77% | growth at 10 µM [6]: 41.4% | GI50 [7]: 0.48 µM | TGI [7]: 7.27 µM | CC50 [7]: 43.6 µM | growth at 10 µM [8]: 10% | GI50 [9]: 2.17 µM | IC50 [9]: 5 µM | TGI [9]: 11.6 µM | CC50 [9]: 38.5 µM | GI50 [10]: 0.339 µM | TGI [10]: 3.36 µM | CC50 [10]: 20.1 µM | GI50 [11]: 0.435 µM | LC50 (50% lethal concentration) [11]: 32 µM | TGI [11]: 4.19 µM | GI50 [12]: 3.57 µM | TGI [12]: 16.3 µM | CC50 [12]: 42 µM | growth at 10 µM [13]: 50.9% | GI50 [14]: 2.8 µM | TGI [14]: 12 µM | CC50 [14]: 39.8 µM | growth at 10 µM [15]: 4.31% | growth at 10 µM [16]: 44.8% | GI50 [17]: 2.37 µM | TGI [17]: 13.6 µM | CC50 [17]: 60.3 µM | GI50 [18]: 4 µM | TGI [18]: 22 µM | CC50 [18]: 72.4 µM | IC50 [19]: 7 µM | IC50 [20]: < 1 µM | growth at 10 µM [21]: 26.7%

CCc1n(Cc2ccc3ccccc3n2)cc[n+]1Cc1ccc2ccccc2n1.[Cl-]
growth at 10 µM [1]: 34.8% | GI50 [2]: 5.27 µM | IC50 [2]: 11 µM | LC50 [2]: > 100 µM | TGI [2]: > 100 µM | solubility [3]: > 80 mM | growth at 10 µM [4]: 40.9% | growth at 10 µM [5]: 16% | growth at 10 µM [6]: 73.1% | GI50 [7]: 0.275 µM | TGI [7]: 8.66 µM | CC50 [7]: > 100 µM | growth at 10 µM [8]: -3.51% | GI50 [9]: 0.511 µM | IC50 [9]: 6 µM | TGI [9]: 11.9 µM | CC50 [9]: 45.7 µM | GI50 [10]: 0.0183 µM | TGI [10]: 0.521 µM | CC50 [10]: 19.7 µM | GI50 [11]: 0.0837 µM | LC50 (50% lethal concentration) [11]: 37.9 µM | TGI [11]: 1.49 µM | GI50 [12]: 6.33 µM | TGI [12]: 41.9 µM | CC50 [12]: > 100 µM | growth at 10 µM [13]: 31.9% | GI50 [14]: 4.66 µM | TGI [14]: 31.5 µM | CC50 [14]: > 100 µM | growth at 10 µM [15]: -11.8% | growth at 10 µM [16]: 57.4% | GI50 [17]: 2.56 µM | TGI [17]: 30.8 µM | CC50 [17]: > 100 µM | GI50 [18]: 0.343 µM | TGI [18]: 41.5 µM | CC50 [18]: > 100 µM | IC50 [19]: 9 µM | IC50 [20]: < 1 µM | growth at 10 µM [21]: 48.4%

CCCc1n(Cc2ccc3ccccc3n2)cc[n+]1Cc1ccc2ccccc2n1.[Cl-]
growth at 10 µM [1]: 34.2% | GI50 [2]: 6.78 µM | IC50 [2]: 10 µM | LC50 [2]: > 100 µM | TGI [2]: > 100 µM | solubility [3]: > 80 mM | growth at 10 µM [4]: 51.7% | growth at 10 µM [5]: 13% | growth at 10 µM [6]: 72.1% | GI50 [7]: 0.865 µM | TGI [7]: 15 µM | CC50 [7]: > 100 µM | growth at 10 µM [8]: 22.8% | GI50 [9]: 2.56 µM | IC50 [9]: 5 µM | TGI [9]: 11.7 µM | CC50 [9]: 39.8 µM | GI50 [10]: 0.399 µM | TGI [10]: 3.23 µM | CC50 [10]: 23.2 µM | GI50 [11]: 0.601 µM | LC50 (50% lethal concentration) [11]: 27.1 µM | TGI [11]: 4.3 µM | GI50 [12]: 4.68 µM | TGI [12]: 41.9 µM | CC50 [12]: > 100 µM | growth at 10 µM [13]: 58.1% | GI50 [14]: 4.28 µM | TGI [14]: 19.4 µM | CC50 [14]: 62.6 µM | growth at 10 µM [15]: 16% | growth at 10 µM [16]: 62.8% | GI50 [17]: 3.4 µM | TGI [17]: 34.8 µM | CC50 [17]: > 100 µM | GI50 [18]: 12.5 µM | TGI [18]: > 100 µM | CC50 [18]: > 100 µM | IC50 [19]: 7 µM | IC50 [20]: 1 µM | growth at 10 µM [21]: 38%
